Legend:
M-HeLa = assay: Anticancer activity against human HelaM cells assessed as cell growth inhibition measured after 24 hrs by DAPI and propidium iodide staining based assay; assay type: functional
[1] = Cytotoxicity against human Chang liver cells assessed as cell growth inhibition measured after 24 hrs by DAPI and propidium iodide staining based assay; assay type: toxicity
HepG2 [2] = assay: Anticancer activity against human HepG2 cells assessed as cell growth inhibition at 100 uM by MTT assay relative to control; assay type: functional
MCF7 [3] = assay: Anticancer activity against human MCF7 cells assessed as cell growth inhibition at 100 uM by MTT assay relative to control; assay type: functional
A-431 = assay: Anticancer activity against human A-431 cells assessed as cell growth inhibition at 100 uM by MTT assay relative to control; assay type: functional
HCT-116 = assay: Anticancer activity against human HCT-116 cells assessed as cell growth inhibition measured after 48 hrs by MTT assay; assay type: functional, cell-based; settings: HCT-116, 48 h
FaDu = assay: Anticancer activity against human FaDu cells assessed as cell growth inhibition; assay type: functional, cell-based
HepG2 [4] = assay: Anticancer activity against human HepG2 cells assessed as cell growth inhibition measured after 48 hrs by MTT assay; assay type: functional, cell-based; settings: HepG2, 48 h
MCF7 [5] = assay: Anticancer activity against human MCF7 cells assessed as cell growth inhibition measured after 48 hrs by MTT assay; assay type: functional, cell-based; settings: MCF7, 48 h
PC-3 = assay: Anticancer activity against human PC-3 cells assessed as cell growth inhibition measured after 48 hrs by MTT assay; assay type: functional, cell-based; settings: PC-3, 48 h

Structure (SMILES) | IC50 (M-HeLa) | IC50 at 24 h [1] | IC50 (FaDu) | further results
O=[N+]([O-])c1c(Cl)cc2c(no[n+]2[O-])c1Nc1ccc(C2CCCCC2)c(O)c1 | ≥ 14.7 µM | > 100 µM |  | 
CCCCCCCCCCCCCCCCOP(=O)([O-])OCC[N+](C)(C)C [MILTEFOSINE] |  |  |  | inhibition at 100 µM (HepG2 [2]): 31.3%; inhibition at 100 µM (MCF7 [3]): 69.4%; inhibition at 100 µM (A-431): 35.4%
COc1ccc(-c2ccc(Nc3c([N+](=O)[O-])c(Cl)cc4c3no[n+]4[O-])cc2O)cc1 | ≥ 14.7 µM | > 100 µM |  | 
CCCCCCc1cc2c(cc1O)OCO2 | 14.7 µM | > 100 µM |  | 
O=C(/C=C/c1cccc(Br)c1)[C@H]1[C@H](c2cccc(Br)c2)C2CSCN2C12C(=O)Nc1c(Br)cc(Br)cc12 (stereo partly drawn) |  |  |  | IC50 (HCT-116): < 3000 nM
O=[N+]([O-])c1c(Cl)cc2c(no[n+]2[O-])c1Nc1ccc(-c2ccc(F)cc2)c(O)c1 | ≥ 14.7 µM | > 100 µM |  | 
Cc1ccc([C@H]2[C@H]([N+](=O)[O-])[C@@H](Cc3c[nH]c4ccccc34)N[C@]23C(=O)Nc2ccc(OC(F)(F)F)cc23)cc1 |  |  | ≥ 30 µM | 
Oc1cc2c(cc1-c1ccccc1)OCO2 | 14.7 µM | > 100 µM |  | 
Cc1ccc(/C=C/C(=O)[C@H]2[C@H](c3ccc(C)cc3)C3CSCN3C23C(=O)Nc2c(Br)cc(Br)cc23)cc1 (stereo partly drawn) |  |  |  | IC50 (HepG2 [4]): ≥ 800 nM; IC50 (MCF7 [5]): 2.5 µg/mL; IC50 (HCT-116): 1.57 µg/mL
O=C1Nc2ccccc2[C@@]12N[C@H](Cc1c[nH]cn1)[C@@H]([N+](=O)[O-])[C@@H]2c1ccc(Cl)cc1 |  |  | ≥ 30 µM | 
Cc1ccc([C@H]2[C@H]([N+](=O)[O-])[C@@H](Cc3c[nH]cn3)N[C@]23C(=O)Nc2ccccc23)cc1 |  |  | ≥ 30 µM | 
O=C1Nc2ccccc2[C@@]12N[C@H](Cc1c[nH]cn1)[C@@H]([N+](=O)[O-])[C@@H]2c1ccc(Br)cc1 |  |  | 40.1 µM | 
COc1ccc([C@H]2[C@H]([N+](=O)[O-])[C@@H](Cc3c[nH]cn3)N[C@]23C(=O)Nc2ccc(OC(F)(F)F)cc23)cc1 |  |  | ≥ 30 µM | 
O=C(/C=C/c1ccc(F)cc1)[C@H]1[C@H](c2ccc(F)cc2)C2CSCN2C12C(=O)Nc1c(Br)cc(Br)cc12 (stereo partly drawn) |  |  |  | IC50 (HepG2 [4]): ≥ 800 nM; IC50 (MCF7 [5]): 2.5 µg/mL; IC50 (HCT-116): 1.57 µg/mL
Cc1ccc(S(=O)(=O)N2CCCC2C(=O)Nc2ccc3c(C)cc(=O)oc3c2)cc1 (single isomer, unassigned) |  |  |  | IC50 (MCF7 [5]): 1070 nM
O=[N+]([O-])c1c(Cl)cc2c(no[n+]2[O-])c1Nc1ccc(-c2ccccc2)c(O)c1 | ≥ 14.7 µM | > 100 µM |  | 
O=C1Nc2ccc(OC(F)(F)F)cc2[C@@]12N[C@H](Cc1c[nH]cn1)[C@@H]([N+](=O)[O-])[C@@H]2c1cccc([N+](=O)[O-])c1 |  |  | ≥ 30 µM | 
Cc1cc(O)cc(=O)o1 | ≥ 14.7 µM | > 100 µM |  | 
O=c1oc2ccccc2c(O)c1-c1ccccc1 | ≥ 14.7 µM | > 100 µM |  | 
O=C1Nc2ccccc2[C@@]12N[C@H](Cc1c[nH]cn1)[C@@H]([N+](=O)[O-])[C@@H]2c1ccccc1 |  |  | 43 µM | 
O=c1oc2ccccc2c(O)c1-c1ccc(F)cc1 | ≥ 14.7 µM | > 100 µM |  | 
Cc1cc(O)c(C2CCCCC2)c(=O)o1 | ≥ 14.7 µM | > 100 µM |  | 
COc1ccc([C@H]2[C@H]([N+](=O)[O-])[C@@H](Cc3c[nH]c4ccccc34)N[C@]23C(=O)Nc2ccccc23)cc1 |  |  | ≥ 30 µM | 

Structure (SMILES) | IC50 (M-HeLa) | IC50 at 24 h [1] | IC50 (FaDu) | further results
Cc1cc(O)c(CCN(C)C)c(=O)o1 | ≥ 14.7 µM | > 100 µM |  | 
O=C1Nc2ccc(OC(F)(F)F)cc2[C@@]12N[C@H](Cc1c[nH]cn1)[C@@H]([N+](=O)[O-])[C@@H]2c1ccccc1Cl |  |  | ≥ 30 µM | 
Cc1ccc([C@H]2[C@H]([N+](=O)[O-])[C@@H](Cc3c[nH]cn3)N[C@]23C(=O)Nc2ccc(OC(F)(F)F)cc23)cc1 |  |  | ≥ 30 µM | 
CN(C)CCc1cc2c(cc1O)OCO2 | 14.7 µM | > 100 µM |  | 
Cc1cc(O)c(-c2ccccc2)c(=O)o1 | ≥ 14.7 µM | > 100 µM |  | 
O=C1Nc2ccc(OC(F)(F)F)cc2[C@@]12N[C@H](Cc1c[nH]cn1)[C@@H]([N+](=O)[O-])[C@@H]2c1ccc(Cl)cc1 |  |  | ≥ 30 µM | 
O=C(/C=C/c1ccc(C(F)(F)F)cc1)[C@H]1[C@H](c2ccc(C(F)(F)F)cc2)[C@H]2CSCN2[C@]12C(=O)Nc1ccccc12 |  |  |  | IC50 (PC-3): 1000 nM; IC50 (HepG2 [4]): ≥ 1500 nM
O=C1Nc2ccc(OC(F)(F)F)cc2[C@@]12N[C@H](Cc1c[nH]c3ccccc13)[C@@H]([N+](=O)[O-])[C@@H]2c1ccccc1 |  |  | ≥ 30 µM | 
Oc1ccc2c(c1)OCO2 | 14.7 µM | > 100 µM |  | 
O=C1Nc2ccccc2[C@@]12N[C@H](Cc1c[nH]c3ccccc13)[C@@H]([N+](=O)[O-])[C@@H]2c1ccc(Br)cc1 |  |  | 39.7 µM | 
O=C1Nc2ccccc2[C@@]12N[C@H](Cc1c[nH]c3ccccc13)[C@@H]([N+](=O)[O-])[C@@H]2c1ccccc1Cl |  |  | ≥ 30 µM | 
CN(C)CCc1ccc(Nc2c([N+](=O)[O-])c(Cl)cc3c2no[n+]3[O-])cc1O | ≥ 14.7 µM | > 100 µM |  | 
Oc1cc2c(cc1-c1ccc(F)cc1)OCO2 | 14.7 µM | > 100 µM |  | 
COc1ccc([C@H]2[C@H]([N+](=O)[O-])[C@@H](Cc3c[nH]c4ccccc34)N[C@]23C(=O)Nc2ccc(OC(F)(F)F)cc23)cc1 |  |  | ≥ 30 µM | 
O=C1Nc2ccccc2[C@@]12N[C@H](Cc1c[nH]c3ccccc13)[C@@H]([N+](=O)[O-])[C@@H]2c1ccccc1 |  |  | 30 µM | 
O=C(/C=C/c1cccc([N+](=O)[O-])c1)[C@H]1[C@H](c2cccc([N+](=O)[O-])c2)C2CSCN2C12C(=O)Nc1c(Br)cc(Br)cc12 (stereo partly drawn) |  |  |  | IC50 (HepG2 [4]): 5000 nM; IC50 (MCF7 [5]): 4000 nM; IC50 (HCT-116): 2800 nM
O=C1Nc2ccccc2[C@@]12N[C@H](Cc1c[nH]c3ccccc13)[C@@H]([N+](=O)[O-])[C@@H]2c1cccc([N+](=O)[O-])c1 |  |  | ≥ 30 µM | 
O=C1Nc2ccccc2[C@@]12N[C@H](Cc1c[nH]cn1)[C@@H]([N+](=O)[O-])[C@@H]2c1ccccc1Cl |  |  | ≥ 30 µM | 
O=C1Nc2ccccc2[C@@]12N[C@H](Cc1c[nH]c3ccccc13)[C@@H]([N+](=O)[O-])[C@@H]2c1ccc(Cl)cc1 |  |  | ≥ 30 µM | 
O=C1Nc2ccccc2[C@@]12N[C@H](Cc1c[nH]cn1)[C@@H]([N+](=O)[O-])[C@@H]2c1cccc([N+](=O)[O-])c1 |  |  | ≥ 30 µM | 
O=[N+]([O-])c1c(Cl)cc2c(no[n+]2[O-])c1Nc1cccc(O)c1 | ≥ 14.7 µM | > 100 µM |  | 
COc1ccc(-c2c(O)c3ccccc3oc2=O)cc1 | ≥ 14.7 µM | > 100 µM |  | 
O=[N+]([O-])c1c(Cl)cc2c(no[n+]2[O-])c1Nc1ccc(-c2ccc(Br)cc2)c(O)c1 | ≥ 14.7 µM | > 100 µM |  | 

Structure (SMILES) | IC50 (M-HeLa) | IC50 at 24 h [1] | IC50 (FaDu) | further results
O=C(/C=C/c1ccc(Cl)cc1)[C@H]1[C@H](c2ccc(Cl)cc2)C2CSCN2C12C(=O)Nc1c(Br)cc(Br)cc12 (stereo partly drawn) |  |  |  | IC50 (HCT-116): < 3000 nM
CCCCCCc1ccc(Nc2c([N+](=O)[O-])c(Cl)cc3c2no[n+]3[O-])cc1O | ≥ 14.7 µM | > 100 µM |  | 
CN(C)CCc1c(O)c2ccccc2oc1=O | ≥ 14.7 µM | > 100 µM |  | 
O=c1cc(O)c2ccccc2o1 [4-HYDROXYCOUMARINS] | ≥ 14.7 µM | > 100 µM |  | 
O=C1Nc2ccc(OC(F)(F)F)cc2[C@@]12N[C@H](Cc1c[nH]cn1)[C@@H]([N+](=O)[O-])[C@@H]2c1ccc(Br)cc1 |  |  | ≥ 30 µM | 
O=c1oc2ccccc2c(O)c1-c1ccc(Br)cc1 | ≥ 14.7 µM | > 100 µM |  | 
CCCCCCc1c(O)c2ccccc2oc1=O | ≥ 14.7 µM | > 100 µM |  | 
Cc1cc(O)c(-c2ccc(Br)cc2)c(=O)o1 | ≥ 14.7 µM | > 100 µM |  | 
CCCCCCc1c(O)cc(C)oc1=O | ≥ 14.7 µM | > 100 µM |  | 
O=C1Nc2ccc(OC(F)(F)F)cc2[C@@]12N[C@H](Cc1c[nH]c3ccccc13)[C@@H]([N+](=O)[O-])[C@@H]2c1cccc([N+](=O)[O-])c1 |  |  | ≥ 30 µM | 
Oc1cc2c(cc1-c1ccc(Br)cc1)OCO2 | 14.7 µM | > 100 µM |  | 
O=C(/C=C/c1ccco1)[C@H]1[C@H](c2ccco2)C2CSCN2C12C(=O)Nc1c(Br)cc(Br)cc12 (stereo partly drawn) |  |  |  | IC50 (HepG2 [4]): ≥ 800 nM; IC50 (MCF7 [5]): 2.5 µg/mL; IC50 (HCT-116): 1.57 µg/mL
O=C(/C=C/c1ccc(Br)cc1)[C@H]1[C@H](c2ccc(Br)cc2)C2CSCN2C12C(=O)Nc1c(Br)cc(Br)cc12 (stereo partly drawn) |  |  |  | IC50 (MCF7 [5]): 2500 nM; IC50 (HCT-116): 2200 nM
O=C1Nc2ccc(OC(F)(F)F)cc2[C@@]12N[C@H](Cc1c[nH]c3ccccc13)[C@@H]([N+](=O)[O-])[C@@H]2c1ccc(Br)cc1 |  |  | ≥ 30 µM | 
Cc1cc(O)c(-c2ccc(F)cc2)c(=O)o1 | ≥ 14.7 µM | > 100 µM |  | 
O=C1Nc2ccc(OC(F)(F)F)cc2[C@@]12N[C@H](Cc1c[nH]cn1)[C@@H]([N+](=O)[O-])[C@@H]2c1ccccc1 |  |  | ≥ 30 µM | 
O=c1oc2ccccc2c(O)c1C1CCCCC1 | ≥ 14.7 µM | > 100 µM |  | 
COc1ccc([C@H]2[C@H]([N+](=O)[O-])[C@@H](Cc3c[nH]cn3)N[C@]23C(=O)Nc2ccccc23)cc1 |  |  | ≥ 30 µM | 
O=C(/C=C/c1ccc(F)cc1)[C@H]1[C@H](c2ccc(F)cc2)[C@H]2CSCN2[C@]12C(=O)Nc1ccc(Br)cc12 |  |  |  | IC50 (PC-3): ≥ 800 nM; IC50 (HepG2 [4]): 800 nM
COc1ccc(-c2cc3c(cc2O)OCO3)cc1 | 14.7 µM | > 100 µM |  | 
O=C1Nc2ccc(OC(F)(F)F)cc2[C@@]12N[C@H](Cc1c[nH]c3ccccc13)[C@@H]([N+](=O)[O-])[C@@H]2c1ccccc1Cl |  |  | ≥ 30 µM | 
COc1ccc(-c2c(O)cc(C)oc2=O)cc1 | ≥ 14.7 µM | > 100 µM |  | 
Cc1ccc([C@H]2[C@H]([N+](=O)[O-])[C@@H](Cc3c[nH]c4ccccc34)N[C@]23C(=O)Nc2ccccc23)cc1 |  |  | ≥ 30 µM | 

From ChEMBL document CHEMBL5360530, “Structure activity relationship (SAR) and anticancer activity of pyrrolidine derivatives: Recent developments and future prospects (A review)” (Eur J Med Chem, 2023)
